Assay results published in patent US9562035B2, “Benzamide derivative useful as FASN inhibitors for the treatment of cancer” (Janssen Pharmaceutica NV, priority 2013, dated 2017).

Columns and labels:
A2780 ovarian cells [1] = assay: A2780 Ovarian Cell Proliferation Assay in Lipid Reduced Medium, without Palmitate; assay type: cell-based; conditions: Homo sapiens, A2780; lipid reduced medium, without palmitate, 96 h, MTT; read-out: Proliferation A2780 w/o Palmitate pIC50 (converted)
In short: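 A2780 cells were seeded in 10% FCS medium and switched next day to 10% lipid-reduced serum without palmitate. Compounds at 0.01–30 μM were added with 0.2% DMSO, 0.2% fatty-acid-free BSA and 0.25% ethanol final. After 96 h, MTT absorbance at 544 nm was normalized to plate controls, and IC50/pIC50 came from a 4-parameter logistic fit.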

[2] = molecular target: T1, FASN Keto-reductase Domain (Homo sapiens, UniProt P49327); assay: Fatty Acid Synthase Keto-Reductase Domain (FASN KR) Inhibition; assay type: biochemical; conditions: mean where tested more than once; read-out: FASN K-R Domain pIC50 (converted)
T1 construct: 10 μL hFASN enzyme (full length, 300 ng, purified in house) and 360 μM NADPH; made in house
T1 sequence (P49327 whole entry, the tested form may be a part): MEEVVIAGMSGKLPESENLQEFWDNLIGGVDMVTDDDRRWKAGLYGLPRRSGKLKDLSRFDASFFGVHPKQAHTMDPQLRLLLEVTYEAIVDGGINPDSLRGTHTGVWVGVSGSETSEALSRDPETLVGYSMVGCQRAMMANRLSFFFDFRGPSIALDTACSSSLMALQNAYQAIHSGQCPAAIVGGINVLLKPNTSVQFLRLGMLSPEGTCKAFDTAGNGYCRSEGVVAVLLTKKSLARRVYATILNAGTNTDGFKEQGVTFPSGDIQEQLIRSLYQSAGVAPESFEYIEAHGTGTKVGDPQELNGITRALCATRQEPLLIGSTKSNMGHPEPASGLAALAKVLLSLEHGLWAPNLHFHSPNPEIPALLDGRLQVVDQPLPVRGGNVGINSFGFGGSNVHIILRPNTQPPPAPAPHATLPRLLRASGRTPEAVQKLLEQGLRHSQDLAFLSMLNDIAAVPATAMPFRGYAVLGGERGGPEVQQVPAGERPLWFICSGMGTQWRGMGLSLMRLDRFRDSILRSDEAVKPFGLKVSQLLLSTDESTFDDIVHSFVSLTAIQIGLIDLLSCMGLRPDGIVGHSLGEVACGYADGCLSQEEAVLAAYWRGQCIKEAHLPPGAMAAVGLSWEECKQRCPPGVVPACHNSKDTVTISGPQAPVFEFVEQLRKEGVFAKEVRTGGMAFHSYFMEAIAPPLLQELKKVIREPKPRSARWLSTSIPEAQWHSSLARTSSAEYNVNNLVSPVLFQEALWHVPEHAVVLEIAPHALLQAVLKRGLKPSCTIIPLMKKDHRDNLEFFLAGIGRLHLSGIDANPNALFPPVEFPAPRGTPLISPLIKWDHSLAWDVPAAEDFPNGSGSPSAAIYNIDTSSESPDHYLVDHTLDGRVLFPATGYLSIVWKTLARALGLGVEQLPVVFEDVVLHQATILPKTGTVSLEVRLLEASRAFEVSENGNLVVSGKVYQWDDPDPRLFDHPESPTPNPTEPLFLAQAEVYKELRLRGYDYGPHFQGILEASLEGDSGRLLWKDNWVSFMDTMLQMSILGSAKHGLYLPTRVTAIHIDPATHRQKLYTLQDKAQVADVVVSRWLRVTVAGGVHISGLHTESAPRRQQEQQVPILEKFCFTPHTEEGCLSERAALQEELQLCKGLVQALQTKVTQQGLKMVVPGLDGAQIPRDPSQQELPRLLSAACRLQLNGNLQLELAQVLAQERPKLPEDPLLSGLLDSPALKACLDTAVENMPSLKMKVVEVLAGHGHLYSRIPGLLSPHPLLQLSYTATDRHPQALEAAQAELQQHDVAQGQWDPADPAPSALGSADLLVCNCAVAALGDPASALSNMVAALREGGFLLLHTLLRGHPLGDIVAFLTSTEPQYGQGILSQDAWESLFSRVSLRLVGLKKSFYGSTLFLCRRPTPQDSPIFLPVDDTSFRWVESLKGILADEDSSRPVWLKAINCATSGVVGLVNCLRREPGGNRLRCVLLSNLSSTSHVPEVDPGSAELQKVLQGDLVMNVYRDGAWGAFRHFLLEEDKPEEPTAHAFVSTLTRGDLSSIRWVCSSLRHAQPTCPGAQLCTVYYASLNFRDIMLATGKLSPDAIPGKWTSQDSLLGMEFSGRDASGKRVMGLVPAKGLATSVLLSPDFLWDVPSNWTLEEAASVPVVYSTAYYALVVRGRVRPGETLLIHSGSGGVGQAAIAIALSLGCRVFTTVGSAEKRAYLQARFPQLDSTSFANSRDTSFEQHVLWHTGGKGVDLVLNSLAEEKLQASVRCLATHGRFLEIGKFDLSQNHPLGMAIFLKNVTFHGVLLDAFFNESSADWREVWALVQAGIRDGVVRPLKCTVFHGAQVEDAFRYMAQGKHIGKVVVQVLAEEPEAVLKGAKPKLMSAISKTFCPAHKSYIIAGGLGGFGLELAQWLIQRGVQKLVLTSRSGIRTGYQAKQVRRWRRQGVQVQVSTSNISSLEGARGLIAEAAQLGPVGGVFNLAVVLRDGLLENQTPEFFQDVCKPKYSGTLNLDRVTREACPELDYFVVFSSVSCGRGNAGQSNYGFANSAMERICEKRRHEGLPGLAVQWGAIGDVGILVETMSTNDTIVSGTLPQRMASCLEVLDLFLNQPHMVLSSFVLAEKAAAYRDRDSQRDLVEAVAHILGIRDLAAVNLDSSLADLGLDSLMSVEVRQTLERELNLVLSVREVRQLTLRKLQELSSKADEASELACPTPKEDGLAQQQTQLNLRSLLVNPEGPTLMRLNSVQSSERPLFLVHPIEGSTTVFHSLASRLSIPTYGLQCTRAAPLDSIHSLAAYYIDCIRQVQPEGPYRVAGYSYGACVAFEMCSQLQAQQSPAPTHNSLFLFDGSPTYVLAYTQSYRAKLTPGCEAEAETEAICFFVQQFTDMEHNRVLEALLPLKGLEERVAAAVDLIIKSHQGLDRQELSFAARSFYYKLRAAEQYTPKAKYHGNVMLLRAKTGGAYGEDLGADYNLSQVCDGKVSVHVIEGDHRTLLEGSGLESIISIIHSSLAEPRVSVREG
In short: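 Full-length human FASN (300 ng) in 100 mM KH2PO4 pH 7.5 with 360 μM NADPH and 180 mM ethyl acetoacetate (stock); A340 decrease read over 20 min at room temperature.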

[3] = molecular target: T2, hFASN enzyme (full length) (Homo sapiens, UniProt P49327); assay: Fatty Acid Synthase (FASN) Inhibition Scintillation Proximity Assay; assay type: biochemical; conditions: for IC50: mean where tested more than once, ~ = standard error of pIC50 larger than 0.5; for inhibition at 10 µM: read-out: FASN % Effect @1E−05M
T2 construct: 10 μL hFASN enzyme (full length, 300 ng, purified in house); made in house
T2 sequence (P49327 whole entry): as the sequence (P49327 whole entry, the tested form may be a part) above
In short: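 Purified full-length human FASN (300 ng) incubated 60 min at room temperature with NADPH, [3H]-acetyl-CoA and malonyl-CoA in 100 mM KH2PO4 pH 7.5, 1 mM DTT; compound at 30 μM to 0.01 μM. [3H]-palmitate captured by SPA imaging beads; IC50 from 4-parameter fit, reported as pIC50.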

A2780 ovarian cells [4] = assay: A2780 Ovarian Cell Proliferation Assay in Lipid Reduced Medium, with Palmitate (control); assay type: cell-based; conditions: Homo sapiens, A2780; lipid reduced medium, 25 μM palmitate, 96 h, MTT; read-out: Proliferation A2780 with Palmitate pIC50 (converted)
In short: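 A2780 cells were seeded in RPMI1640 with 10% FCS, then switched next day to medium with 10% lipid-reduced serum. Compound was added with final 25 μM palmitate, 0.2% fatty-acid-free BSA and 0.2% DMSO, and incubated 96 h at 37 °C. Read-out was MTT absorbance at 544 nm; pIC50 = −log(IC50) from curve fit.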

SMILES	IC50 (A2780 ovarian cells [1]) [nM]	IC50 [2] [nM]	IC50 [3] [nM]	inhibition at 10 µM [3] [%]	IC50 (A2780 ovarian cells [4]) [nM]
Cc1ccc(C(=O)N2CC(c3ccc(-c4cnn(C)c4)cc3)C2)cc1NC(=O)C1CC1 [Compound 142, N-(2-methyl-5-(3-(4-(1-methyl-1H-pyrazol-4-yl)phenyl)azetidine-1-carbonyl)phenyl)cyclopropanecarboxamide]	107	110	46.8	106	> 10000
Cc1ccc(C(=O)N2CCC(c3ccc(-n4ccnc4)cc3)CC2)cc1NC(=O)c1ccc(Cl)nc1 [Compound #11, N-(5-(4-(4-(1H-imidazol-1-yl)phenyl)piperidine-1-carbonyl)-2-methylphenyl)-6-chloronicotinamide]	56.2	49	27.5	106	> 10000
Cc1ccc(C(=O)N2CC(c3ccc(-c4cnn(C)c4)cc3)C2)cc1NC(=O)c1cccs1 [Compound 84, N-(2-methyl-5-(3-(4-(1-methyl-1H-pyrazol-4-yl)phenyl)azetidine-1-carbonyl)phenyl)thiophene-2-carboxamide]	234	162	37.2	103	> 10000
Cc1ccc(C(=O)N2CCC(c3ccc(-c4cnn(C)c4)cc3)CC2)cc1NC(=O)c1ccc(N(C)C(C)C)nc1 [Compound 92, 6-(Isopropyl(methyl)amino)-N-(2-methyl-5-(4-(4-(1-methyl-1H-pyrazol-4-yl)phenyl)piperidine-1-carbonyl)phenyl)nicotinamide]	9.12	30.9	16.2	100	6030
Cc1ccc(C(=O)N2CCC(c3ccc(-c4cnn(C)c4)cc3)CC2)cc1NC(=O)c1ccc(N(C)C)cn1 [Compound 119, 5-(dimethylamino)-N-(2-methyl-5-(4-(4-(1-methyl-1H-pyrazol-4-yl)phenyl)piperidine-1-carbonyl)phenyl)picolinamide]	191	141	64.6	98	6460
Cc1ccc(C(=O)N2CC(c3ccc(-c4ccnn4C)cc3)C2)cc1NC(=O)c1ccc(N2CCCCC2)nc1 [Compound 57, N-(2-methyl-5-(3-(4-(1-methyl-1H-pyrazol-5-yl)phenyl)azetidine-1-carbonyl)phenyl)-6-(piperidin-1-yl)nicotinamide]	45.7	25.7	25.1	106	6310
Cc1ccc(C(=O)N2CCC(c3ccc(-c4cnn(C)c4)cc3)CC2)cc1NC(=O)c1cncs1 [Compound 174, N-(2-methyl-5-(4-(4-(1-methyl-1H-pyrazol-4-yl)phenyl)piperidine-1-carbonyl)phenyl)thiazole-5-carboxamide]	141	135	60.3	103	> 10000
Cc1ccc(C(=O)N2CCC(c3ccc(-c4cnn(CC5CC5)c4)cc3)CC2)cc1NC(=O)c1ccc(NC(C)C)nc1 [Compound 249, N-(5-(4-(4-(1-(cyclopropylmethyl)-1H-pyrazol-4-yl)phenyl)piperidine-1-carbonyl)-2-methylphenyl)-6-(isopropylamino)nicotinamide]	72.4	100	53.7	109	5250
COc1cc(C(=O)Nc2cc(C(=O)N3CCC(c4ccc(-c5cnn(C)c5)cc4)CC3)ccc2C)cc(Cl)n1 [Compound 103, 2-Chloro-6-methoxy-N-(2-methyl-5-(4-(4-(1-methyl-1H-pyrazol-4-yl)phenyl)piperidine-1-carbonyl)phenyl)isonicotinamide]	141	148	75.9	95	4570
Cc1ccc(C(=O)N2CC(c3ccc(-c4cnn(C)c4)cc3)C2)cc1NC(=O)c1cccc(C(F)(F)F)n1 [Compound 97, N-(2-methyl-5-(3-(4-(1-methyl-1H-pyrazol-4-yl)phenyl)azetidine-1-carbonyl)phenyl)-6-(trifluoromethyl)picolinamide]	501	324	170	89	6030
